Data from patent US20260115314A1, “PREVENTION AND/OR TREATMENT OF CARDIAC DAMAGE” (priority 2022, published 2026).
Where no end group is shown, it is not given here.

Key:
NF-κB = NF-κB (p65) nuclear translocation in LPS-stimulated RAW 264.7 macrophages, confocal microscopy; type: cell-based; settings: RAW 264.7 cells, NIL10, co-incubated with 5 μM STATTIC
Procedure: (§2) A. Confocal microscopy detection of NF-κB (p65) in RAW 264.7 cells stimulated with 500 μM LPS or in combination with NIL10. Nuclei were stained with DAPI. […] (N=3, results expressed as Mean±SD. *P<0.05 LPS/NIL10 vs LPS/NIL10SC). […] Confocal microscopy detection as in A, in which STATTIC, a pharmacological inhibitor of STAT3 was incubated. Arrows point nuclear or cytoplasmic localization of p65. Lower panels: immunoblot detection of iNOS in cells as in C. (N=3, results expressed as Mean±SD. *P<0.03 LPS vs LPS/NIL10 **P<0.05 LPS/STATTIC vs LPS/NIL10SC/STATTIC. ***P<0.001 NIL10/STATIC vs LPS/NIL10/STATIC).
(§3) The expression of the readout inducible nitric oxide synthase (iNOS) by pro-inflammatory signals was also assayed.

[1] = test system: inducible nitric oxide synthase (iNOS); assay: Immunoblot of iNOS in LPS-stimulated RAW 264.7 macrophages; type: cell-based; settings: NIL10 plus STATTIC
Procedure: as §2, §3

IL-10R = molecular target: T1, IL-10R (Mus musculus, UniProt Q61727); assay: Confocal microscopy colocalization of nanoparticles with IL-10R in RAW 264.7 macrophages; type: binding; settings: RAW 264.7 cells, rhodamine nanoparticle vs FITC anti-IL-10R
T1 construct: endogenous in cells; host or cells: RAW 264.7 macrophages
T1 sequence (Q61727 17-575): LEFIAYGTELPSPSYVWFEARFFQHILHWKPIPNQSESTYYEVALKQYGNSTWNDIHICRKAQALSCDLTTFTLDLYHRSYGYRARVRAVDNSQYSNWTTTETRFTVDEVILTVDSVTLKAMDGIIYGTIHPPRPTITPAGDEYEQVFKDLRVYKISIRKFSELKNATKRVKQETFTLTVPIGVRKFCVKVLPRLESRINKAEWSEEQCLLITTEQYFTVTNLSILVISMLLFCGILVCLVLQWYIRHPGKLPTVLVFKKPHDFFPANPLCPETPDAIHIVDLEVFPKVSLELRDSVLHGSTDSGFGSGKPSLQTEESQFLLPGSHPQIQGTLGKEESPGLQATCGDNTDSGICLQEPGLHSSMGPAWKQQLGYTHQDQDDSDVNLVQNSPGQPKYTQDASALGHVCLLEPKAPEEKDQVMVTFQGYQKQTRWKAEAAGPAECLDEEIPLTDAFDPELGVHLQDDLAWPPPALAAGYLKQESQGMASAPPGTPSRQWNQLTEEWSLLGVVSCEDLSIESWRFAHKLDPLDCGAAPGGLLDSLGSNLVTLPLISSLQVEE
Procedure: FIG. 1. NIL10 binds to IL-10R in RAW 264.7 cells. A. Nanoparticle composition of NIL10 and NIL10SC. B. Z-potential, longitudinal and transversal relaxivities of NIL10 and NIL10SC nanoparticles. C. Bright field and confocal microscopy sections of RAW 264.7 macrophages, detecting rhodamine (red) containing NIL10 nanoparticles. D,E Colocalization of NIL10 (D) (rhodamine, red) or NIL10SC (E) with IL-10R (FICT, green) in confocal microscopy sections of RAW 264.7 cells incubated with NIL10 and anti-IL-10R specific antibody. Merged panel show co-localization of both signals. Nuclei were stained with Hoechst. Right panel: colocalization analysis with Image J co-localization plugin software, in which white dots correspond to co-localization (N=3).
To study the specificity of nanoparticles, we first incubated NIL10 (FIG. 1A, B) in RAW 264.7 macrophages, detecting rhodamine-containing nanoparticles by confocal microscopy (FIG. 1C).

mice subjected to IR = assay: LVEF by echocardiography in wild type mice subjected to IR; type: in vivo; settings: 1 mg/kg 24 hours after IR, value NIL10 is compared against, day not given
Text: FIG. 3. NIL10 induces cardiac protection in mice subjected to IR. A. Outline of the proceedings performed. B. Representative electrocardiogram, showing ST-elevation after LAD occlusion. C. Left ventricle ejection fraction (LVEF) of wild type mouse hearts at the times indicated after IR and injected with NIL10 or NIL10SC as in A. N=10 mice/group. Results expressed as mean±SD. *P<0.03 NIL10 vs NIL10SC day 7. #P<0.05 NIL10 vs NIL10SC day 3. D. LVEF in IL-10 knockout mice. N=10 mice/group. Results expressed as mean±SD. *P<0.01 NIL10 vs NIL10SC day 7. #P<0.05 NIL10 vs NIL10SC day 3. E. LVEF in IL-10 receptor knockout mice. N=10 mice/group. Results expressed as mean±SD.
(§1) 20 male twelve-week-old wild type, IL10 knock-out and IL10RA knock-out mice C57/BL6 were anesthetized by inhaled 3% sevoflurane and oxygen with a flow rate of 0.4 L/min until loss of righting reflex. Then, endotracheal intubation was perform using an intubation cannula in order to carry out artificial ventilation (tidal volume: 260 μL/stroke, ventilation rate: 130 strokes per minute). The fourth left intercostal space was opened and widened using chest mice retractors. Left ventricle was exposed and LAD was occluded for 30 min close by using a 6-0 silk suture and 1 mm tube. Reperfusion was performed by ligation release. After the procedure, the chest was closed, negative pressure restored, and the skin sutured. […]

[2] = test system: mouse hearts subjected to IR; assay: Hematoxylin/Eosin and Masson trichrome staining of mouse heart sections after IR; type: in vivo, mice; settings: by day 7 after IR
Text: FIG. 4. Hematoxylin and Eosin staining of mouse hearts. Heart sections of mice subjected to IR and injected with NIL10 or NIL10SC and collected by days 3 (A) or 7 (B) after IR. N=10 mice/group. From left to right: 2×, 20×, 40×. *P<0.05 D3; **P<0.01D7.
FIG. 5. NIL10 reduce heart fibrosis in response to IR. A. Representative immunoblot of MMP9 from healthy (H) or necrotic (N) areas of mouse hearts after 7 days of IR and injected with NIL10 or NIL10SC. N=10 mice/group. Mean±SD. *P<0.001 NIL10 vs NIL10SC necrotic areas. B. Masson Trichrome staining of heart sections from mice injected with NIL10 or NIL10SC, after 3- or 7-days post IR (N=10 mice/group). *P<0.05 D3; **P<0.03 D7.
as §1, with “tube.” for “tube. Reperfusion was performed by ligation release. After the procedure, the chest was closed, negative pressure restored, and the skin sutured.”
Heart morphology was visualized by Hematoxylin/Eosin staining and collagen deposition was detected by Masson's trichrome staining in mice and pigs.

pigs subjected to IR = assay: Evans Blue/TTC staining of necrotic area in pig hearts after IR; type: in vivo; settings: 1 mg/kg, after 7 days of IR, EvansBlue/TTC
Text: FIG. 6. NIL10 induces cardiac protection in pigs subjected to IR. A. Evans blue/TTC staining (see methods for details) of pig heart sections (from apex to base) after 7 days of IR, showing healthy tissue (blue), the area at risk (red) and the necrotic areas (white). B. Measurement of necrotic areas of the hearts, represented as a percentage respect to the area at risk (Mean±SD. *P<0.001 NIL10 vs NIL10SC, at day 7 post IR). C. Left ventricle ejection fraction of hearts from pigs injected with NIL10 or NIL10SC after 7 days of IR (Mean±SD. *P<0.001 NIL10 vs NIL10SC). D. Hematoxylin and Eosin staining of healthy and necrotic heart sections from pigs injected with NIL10 or NIL10SC after 7 days of IR. E. Masson Trichrome staining of the same hearts as in D. (N=10 pigs/group).
20 male Yorkshire pigs (30±4 kg) were housed 1 week preceding the surgery to avoid unease or stress associated with the new environment. Prior to the surgical intervention, animals were anesthetized with intramuscular ketamine 10 mg/kg and midazolam 0.5 mg/kg.
Anesthesia was induced by inhaled sevoflurane and maintained with continuous infusion of propofol 2 mL/kg/h, fentanyl 50 μg/kg/h, and diazepam 10 μg/kg/h. […]

[3] = test system: M2 CD68+/CD206+ macrophages; assay: Flow cytometry of M2 macrophage populations in mouse hearts after IR; type: in vivo, mice; settings: cell extracts from necrotic areas of mouse hearts, 3 and 7 days of IR
Text: FIG. 7. NIL10 induces M2 macrophage polarization in the hearts of mice subjected to IR. A. Flow cytometry analysis of macrophage populations in mouse hearts after 3 and 7 days of IR. The percentage of M2 CD68+/CD206+ population were selected from the necrotic and at-risk areas of the hearts. B. Gating strategy used to identify macrophage-cell subsets in the health and infarcted mouse heart. A sequential getting strategy was first used to identify M2 population expressing specific macrophage marker CD68, followed by the identification of the population with overlapping expression patterns (CD68/CD206) (N=10 mice/group). Differences between groups were compared using one-way ANOVA. **P<0.01. ***P<0.001. ****P<0.0001.
Whole mouse hearts were mashed in complete DMEM (10% FBS, penicillin/streptomycin) through a 100-μm cell strainer. ACK Lysing Buffer was added to the single-cell suspension and spun down at 350 g for 5 minutes. The ACK was washed out with 50 mL of washing buffer (1% FBS), and cells were incubated with 1:100 anti-EMMPRIN, anti-CD68 and anti-CD206 antibodies. All flow cytometry samples were assayed in a MACSQuant Analyzer Flow Cytometer and analyzed with the Graphpad Prism software package.

Molecule | NIL10-induced cytoplasmic localization of NF-κB (NF-κB) | NIL10 inhibition of iNOS expression in the presence of STATTIC [1] | Colocalization with the IL-10R (IL-10R) | LVEF (comparator value) (mice subjected to IR) | extension of fibrosis (Masson Trichrome) [2] | necrotic area (pigs subjected to IR) | presence of M2-resolving macrophages [3]
O=[N+]([O-])c1ccc2c(c1)S(=O)(=O)C=C2 [STATTIC] | prevented | reversed | – | – | – | – | –
NIL10SC: nanoparticle conjugated with the same peptide in a scrambled orientation (CANYRMITKM); control, does not bind IL10R (also: conjugated to nanoparticle (site not given here)) | – | – | no binding | 41.5%±4.33 | fibrotic lesions were widespread | 55±7.34 percentage respect to the area | takes 7 days to detect a similar effect
